Test results published in patent US6946446B2, “Anti-infective agents useful against multidrug-resistant strains of bacteria” (Abbott Laboratories, priority 2000, dated 2005).
Converted amounts (≈) assume the structure as drawn.

Tests used:
S. aureus A-5278 = assay: In vitro antibacterial activity, agar dilution MIC; assay type: cell-based, Staphylococcus aureus; conditions: BHI agar dilution, 35-37° C., 20 to 24 hours
Description: (§1) Representative compounds of the present invention were assayed in vitro for antibacterial activity as follows: Petri dishes containing successive aqueous dilutions of the test compound mixed with 10 mL of sterilized Brain Heart Infusion (BHI) agar (Difco 0418-01-5) were prepared. Each plate was inoculated with 1:100 dilutions of a different microorganism, using a Steers replicator block. The inoculated plates were incubated at 35-37° C. for 20 to 24 hours. In addition, a control plate, using BHI agar containing no test compound, was prepared and incubated at the beginning and end of each test.
(§2) An additional plate containing a compound having known susceptibility patterns for the organisms being tested and belonging to the same antibiotic class as the test compound was also prepared and incubated as a further control, as well as to provide test-to-test comparability. Erythromycin A was used for this purpose.
(§3) After incubation, each plate was visually inspected. The minimum inhibitory concentration (MIC) was defined as the lowest concentration of drug yielding no growth, a slight haze, or sparsely isolated colonies on the inoculum spot as compared to the growth control.

[1] = system: Resistant Staphylococcus aureus 1775; assay: In vitro antibacterial activity, agar dilution MIC; assay type: cell-based; conditions: BHI agar dilution, 35-37° C., 20 to 24 hours
Description: as §1, §2, §3

Row | MIC (S. aureus A-5278; Staphylococcus aureus, A5278) [µg/mL] | MIC ([1]; Staphylococcus aureus, read-out: MIC S. aureus 1775) [µg/mL] | Structure (SMILES) | MIC S. aureus A-5278 (S. aureus A-5278) [µg/mL] | MIC S. aureus 1775 [1] [µg/mL]
1 |  |  | CC[C@H]1OC(=O)[C@H](C)[C@@H](O[C@H]2C[C@@](C)(OC)[C@@H](O)[C@H](C)O2)[C@H](C)[C@@H](O[C@@H]2O[C@H](C)C[C@H](N(C)C)[C@H]2O)[C@](C)(O)C[C@@H](C)C(=O)[C@H](C)[C@@H](O)[C@]1(C)O [Erythromycin, Erythromycin A, reference compound] | >100 | >100
2 |  |  | CCC1OC(=O)C(C)C(OC2CC(C)(OC)C(O)C(C)O2)C(C)C(OC2OC(C)CC(N(C)C)C2O)C(C)(OCc2cccc(I)c2)CC(C)C(=NO)C(C)C(O)C1(C)O (stereo not shown) [Ex. 12, 6-O-[(3-Iodo)benzyl]-9-oxime Erythromycin A] | 25 (≈ 25.9 µM) | 25 (≈ 25.9 µM)
3 | > 100 | > 100 | COc1cccc(OC)c1C(=O)N[C@@H]1C(=O)N2[C@@H]1SC(C)(C)[C@@H]2C(=O)O [Methicillin, reference compound] |  | 
4 |  |  | CCON=C1C(C)CC(C)(OCC=Cc2cnc3ccccc3c2)C(OC2OC(C)CC(N(C)C)C2O)C(C)C(=O)C(C)C(=O)OC(CC)C(C)(O)C(O)C1C (stereo not shown) [Ex. 1, 6-O-[3-(3-quinolyl)-2-propen-1-yl]-3-descladinose-3-oxo-9-[(O-ethyl)oxime] Erythromycin A] | 25 (≈ 31.9 µM) | 12.5 (≈ 15.9 µM)
5 |  |  | CCC1OC(=O)C(C)C(OC2CC(C)(OC)C(O)C(C)O2)C(C)C(OC2OC(C)CC(N(C)C)C2O)C(C)(OCc2ccc(-c3ccccc3)cc2)CC(C)C(=NO)C(C)C(O)C1(C)O (stereo not shown) [Ex. 13, 6-O-[(4-Phenyl)benzyl]-9-oxime Erythromycin A] | 50 (≈ 54.6 µM) | 25 (≈ 27.3 µM)
